Experimental data reported in US6410558B1, “Fungicides for the control of take-all disease of plants” (Monsanto Technology LLC, priority 1991, dated 2002).

What was measured:
[1] = system: Gaeumannomyces graminis var. tritici (Ggt); experiment: In vitro Assay: mycelial growth of Ggt on minimal media agar plates containing test compound; type: cell-based; settings: dark, 19-20° C., 4 to 5 days, diameter of mycelial growth; for In vitro (ppm) 0.1, Percent Inhibition / inhibition at 0.1 ppm: 0.1 ppm in minimal media agar; for In vitro (ppm) 1, Percent Inhibition / inhibition at 1 ppm: 1 ppm in minimal media agar; for In vitro (ppm) 10, Percent Inhibition / inhibition at 10 ppm: 10 ppm in minimal media agar; for inhibition at 0.1 ppm / inhibition at 1 ppm / inhibition at 10 ppm: Gaeumannomyces graminis; for inhibition at 0.1 ppm: read-out: In vitro (ppm) 0.1, Percent Inhibition; for inhibition at 1 ppm: read-out: In vitro (ppm) 1, Percent Inhibition; for inhibition at 10 ppm: read-out: In vitro (ppm) 10, Percent Inhibition
Summary of the method: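 Ggt mycelial diameter read after 4 to 5 days in darkness at 19-20° C, from three 4-mm plugs placed on Czapek Dox minimal agar containing test compound delivered in acetone. Inhibition expressed as percent versus untreated plates, plug size (4 mm) subtracted from both.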

[2] = system: Ggt; experiment: In vivo Assay: control of Ggt on wheat grown in pots of Ggt-infested soil, root disease rating; design: species or system Gaeumannomyces graminis var. tritici; settings: 0.5 mg active ingredient per pot, 'Bergen' or 'Anza' wheat in Ggt-infested soil, after four weeks, vs untreated control; for pest or weed control at 0.5 mg/pot: Gaeumannomyces graminis, 672 h, read-out: In vivo, percent disease control
Protocol: Compounds are tested for control of Ggt on ‘Bergen’ or ‘Anza’ varieties of wheat grown in 3-inch square pots containing soil infested with Ggt. The infestation is accomplished by mixing the soil with an inoculum prepared by growing Ggt on ¼ strength potato dextrose agar (4.875 g potato dextrose agar, 5.0 g Bacto agar, 500 mL distilled, deionized water) in plates and using plugs from the plates to infest sterile oats (400 cc whole oats, 350 mL deionized water, autoclaved). After a one-month incubation period at room temperature, the oats are dried and mixed with the soil at 4% v/v. Four wheat seeds are placed on top of the soil in each pot. The test compounds are prepared as an 1:9 acetone/water v/v solution containing 0.18% Tween® 20 to provide a treatment rate of 0.5 mg active ingredient per pot, treated with 3 mL test solution per pot. Five pots are used for each treatment level and the controls, which are untreated, inoculated and non-inoculated pots. After one hour drying time, the seeds are covered with more of the appropriate soil and a layer of vermiculite. The pots are placed in a growth chamber and watered each day. After four weeks, each pot is evaluated for evidence of disease by examination of the seminal roots of each plant under a dissecting microscope. A 0 to 5 rating scale having the following meanings is used:
0=no runner hyphae or lesions present
1=runner hyphae and a few small lesions present on <10% of root system
2=runner hyphae and small lesions present on 10-25% of root system
3=runner hyphae and lesions present on 25-50% of root system
4=runner hyphae and many, large, coalescing lesions on >50% of root system
5=root system and culm completely inundated with lesions and runner hyphae
From each set of five replicates a high and low score is eliminated and a replicate mean is calculated by the average of the remaining three scores. This mean score is then compared to the untreated control score and a percent disease control is calculated.

Q: `CCN(CC)C(=O)c1c(Cl)ccc[c]1[Sn]([CH3])([CH3])[CH3]` [Example 7, 2-Chloro-N,N-diethyl-6-(trimethylstannyl)benzamide] was tested. Which “In vitro (ppm) 0.1, Percent Inhibition” value [1] did it give?
A: 42%

Q: And the “In vitro (ppm) 1, Percent Inhibition” value [1]?
A: 77%

Q: And the “In vitro (ppm) 10, Percent Inhibition” value [1]?
A: 100%

Q: What about the “In vivo, percent disease control” value [2] of the same molecule?
A: 93%

Q: Which results are given for `CCNC(=O)c1c(C)cccc1C(C)(C)C` [Example 8, 2-(1,1-Dimethylethyl)-N-ethyl-6-methylbenzamide]?
A: inhibition at 0.1 ppm [1]: 19%; inhibition at 1 ppm [1]: 97%; inhibition at 10 ppm [1]: 100%; pest or weed control at 0.5 mg/pot [2]: 85%

Q: `CCNC(=O)c1cccc(F)c1[Si](C)(C)C` [Example 12, N-Ethyl-3-fluoro-2-(trimethylsilyl)benzamide] was tested. Which inhibition at 0.1 ppm [1] did it give?
A: 29%

Q: And the inhibition at 1 ppm [1]?
A: 83%

Q: What about the inhibition at 10 ppm [1] of the same molecule?
A: 100%

Q: And the pest or weed control at 0.5 mg/pot [2]?
A: 95%

Q: Which inhibition at 0.1 ppm [1] does the source give for `CCCN(CCC)C(=O)c1ccccc1[Si](C)(C)C` [Example 13, N,N-Dipropyl-2-(trimethylsilyl)benzamide] here?
A: 7%

Q: And the inhibition at 1 ppm [1]?
A: 17%

Q: What about the inhibition at 10 ppm [1] of the same molecule?
A: 64%

Q: And the pest or weed control at 0.5 mg/pot [2]?
A: 13%

Q: For `C[Si](C)(C)c1cccc(Cl)c1C(=O)Nc1ccccc1` [Example 16, 2-Chloro-N-phenyl-6-(trimethylsilyl)-benzamide], which inhibition at 0.1 ppm [1] is on record?
A: 11%

Q: And the inhibition at 1 ppm [1]?
A: 27%

Q: And the inhibition at 10 ppm [1]?
A: 76%

Q: What about the pest or weed control at 0.5 mg/pot [2] of the same molecule?
A: 3%

Q: Which results are given for `CCCCCCCCNC(=O)c1c(Cl)cccc1[Si](C)(C)C` [Example 17, 2-Chloro-N-octyl-6-(trimethylsilyl)-benzamide]?
A: inhibition at 0.1 ppm [1]: 59%; inhibition at 1 ppm [1]: 64%; inhibition at 10 ppm [1]: 64%; pest or weed control at 0.5 mg/pot [2]: < 0%

Q: How did the inhibition at 0.1 ppm [1] turn out when `CCN(C(=O)c1c(Cl)cccc1[Si](C)(C)C)C(C)C` [Example 18, 2-Chloro-N-ethyl-N-(1-methylethyl)-6-(trimethylsilyl)benzamide] was run?
A: < 0%

Q: What about the inhibition at 1 ppm [1] of the same molecule?
A: < 0%

Q: What about the inhibition at 10 ppm [1] of the same molecule?
A: 100%

Q: And the pest or weed control at 0.5 mg/pot [2]?
A: 97%

Q: Which inhibition at 0.1 ppm [1] does the source give for `CNC(=O)c1c(Cl)cccc1[Si](C)(C)C` [Example 19, 2-Chloro-N-methyl-6-(trimethylsilyl)-benzamide] here?
A: < 0%

Q: And the inhibition at 1 ppm [1]?
A: 7%

Q: And the inhibition at 10 ppm [1]?
A: 29%

Q: And the pest or weed control at 0.5 mg/pot [2]?
A: 38%

Q: What does the source list for `CCCCNC(=O)c1c(Cl)cccc1[Si](C)(C)C` [Example 20, N-Butyl-2-chloro-6-(trimethylsilyl)-benzamide]?
A: inhibition at 0.1 ppm [1]: 7%; inhibition at 1 ppm [1]: 14%; inhibition at 10 ppm [1]: 61%; pest or weed control at 0.5 mg/pot [2]: 36%

Q: What does the source list for `CC(C)NC(=O)c1c(Cl)cccc1[Si](C)(C)C` [Example 21, 2-Chloro-N-(1-methylethyl)-6-(trimethylsilyl) benzarnide]?
A: In vitro (ppm) 0.1, Percent Inhibition [1]: 100%; In vitro (ppm) 1, Percent Inhibition [1]: 100%; In vitro (ppm) 10, Percent Inhibition [1]: 100%; In vivo, percent disease control [2]: 100%

Q: Which results are given for `CCN(C)C(=O)c1c(Cl)cccc1[Si](C)(C)C` [Example 22, 2-Chloro-N-ethyl-N-methyl-6-(trimethylsilyl)benzamide]?
A: inhibition at 0.1 ppm [1]: 13%; inhibition at 1 ppm [1]: < 0%; inhibition at 10 ppm [1]: 46%; pest or weed control at 0.5 mg/pot [2]: 91%

Q: Which inhibition at 0.1 ppm [1] does the source give for `C[Si](C)(C)c1cccc(Cl)c1C(=O)NCC(F)(F)F` [Example 25, 2-Chloro-N-(2,2,2-trifluoro-ethyl)-6-(trimethylsilyl)-benzamide] here?
A: 19%

Q: What about the inhibition at 1 ppm [1] of the same molecule?
A: 15%

Q: What about the inhibition at 10 ppm [1] of the same molecule?
A: 89%

Q: What about the pest or weed control at 0.5 mg/pot [2] of the same molecule?
A: 56%

Q: With `CCCNC(=O)c1c(Cl)cccc1[Si](C)(C)C` [Example 26, 2-Chloro-N-propyl-6-(trimethylsilyl)benzamide] as the molecule, how does the inhibition at 0.1 ppm [1] read?
A: 95%

Q: What about the inhibition at 1 ppm [1] of the same molecule?
A: 95%

Q: What about the inhibition at 10 ppm [1] of the same molecule?
A: 97%

Q: And the pest or weed control at 0.5 mg/pot [2]?
A: 99%

Q: Which results are given for `C[Si](C)(C)c1cccc(Cl)c1C(=O)NCCO` [Example 27, 2-Chloro-N-(2-hydroxyethyl)-6-(trimethylsilyl)benzamide]?
A: inhibition at 0.1 ppm [1]: 15%; inhibition at 1 ppm [1]: 13%; inhibition at 10 ppm [1]: 64%; pest or weed control at 0.5 mg/pot [2]: 33%

Q: `CCC(C)NC(=O)c1c(Cl)cccc1[Si](C)(C)C` (stereo not shown) [Example 28, 2-Chloro-N-(1-methylpropyl)-6-(trimethylsilyl)benzamide] was tested. Which inhibition at 0.1 ppm [1] did it give?
A: 60%

Q: And the inhibition at 1 ppm [1]?
A: 100%

Q: What about the inhibition at 10 ppm [1] of the same molecule?
A: 100%

Q: And the pest or weed control at 0.5 mg/pot [2]?
A: 86%

Q: Which results are given for `C[Si](C)(C)c1cccc(Cl)c1C(=O)NCCCl` [Example 29, 2-Chloro-N-(2-chloroethyl)-6-(trimethylsilyl)benzamide]?
A: inhibition at 0.1 ppm [1]: 100%; inhibition at 1 ppm [1]: 100%; inhibition at 10 ppm [1]: 100%; pest or weed control at 0.5 mg/pot [2]: 97%

Q: `C[Si](C)(C)c1cccc(Cl)c1C(=O)NCc1ccco1` [Example 32, 2-Chloro-N-(2-furylmethyl)-6-(trimethylsilyl)benzamide] was tested. Which inhibition at 0.1 ppm [1] did it give?
A: 75%

Q: And the inhibition at 1 ppm [1]?
A: 100%

Q: And the inhibition at 10 ppm [1]?
A: 100%

Q: And the pest or weed control at 0.5 mg/pot [2]?
A: 85%

Q: How did the inhibition at 0.1 ppm [1] turn out when `Cc1ccccc1NC(=O)c1c(Cl)cccc1[Si](C)(C)C` [Example 33, 2-Chloro-N-(2-methylphenyl)-6-(trimethylsilyl)benzamide] was run?
A: < 0%

Q: And the inhibition at 1 ppm [1]?
A: 44%

Q: And the inhibition at 10 ppm [1]?
A: 100%

Q: What about the pest or weed control at 0.5 mg/pot [2] of the same molecule?
A: 12%

Q: For `C[Si](C)(C)c1cccc(Cl)c1C(=O)NC1CC1` [Example 34, 2-Chloro-N-cyclopropyl-6-(trimethylsilyl)benzamide], which inhibition at 0.1 ppm [1] is on record?
A: 97%

Q: And the inhibition at 1 ppm [1]?
A: 100%

Q: What about the inhibition at 10 ppm [1] of the same molecule?
A: 100%

Q: What about the pest or weed control at 0.5 mg/pot [2] of the same molecule?
A: 100%

Q: With `CCN(Cc1ccccc1)C(=O)c1c(Cl)cccc1[Si](C)(C)C` [Example 35, 2-Chloro-N-ethyl-N-(phenylmethyl)-6-(trimethylsilyl)benzamide] as the molecule, how does the inhibition at 0.1 ppm [1] read?
A: 3%

Q: What about the inhibition at 1 ppm [1] of the same molecule?
A: 7%

Q: And the inhibition at 10 ppm [1]?
A: 93%

Q: What about the pest or weed control at 0.5 mg/pot [2] of the same molecule?
A: 46%

Q: Which results are given for `CCCN(CCC)C(=O)c1c(Cl)cccc1[Si](C)(C)C` [Example 36, 2-Chloro-N,N-dipropyl-6-(trimethylsilyl)benzamide]?
A: inhibition at 0.1 ppm [1]: 26%; inhibition at 1 ppm [1]: 69%; inhibition at 10 ppm [1]: 100%; pest or weed control at 0.5 mg/pot [2]: 88%

Q: With `CCN(CC)C(=O)c1c(Br)ccc(F)c1[Si](C)(C)C` [Example 37, 6-Bromo-N,N-diethyl-3-fluoro-2-(trimethylsilyl)benzamide] as the molecule, how does the inhibition at 0.1 ppm [1] read?
A: 17%

Q: And the inhibition at 1 ppm [1]?
A: 63%

Q: And the inhibition at 10 ppm [1]?
A: 87%

Q: And the pest or weed control at 0.5 mg/pot [2]?
A: 83%

Q: With `CCN(CC)C(=O)c1c(Cl)ccc(F)c1[Si](C)(C)C` [Example 38, 6-Chloro-N,N-diethyl-3-fluoro-2-(trimethylsilyl)benzamide] as the molecule, how does the inhibition at 0.1 ppm [1] read?
A: 53%

Q: What about the inhibition at 1 ppm [1] of the same molecule?
A: 79%

Q: What about the inhibition at 10 ppm [1] of the same molecule?
A: 100%

Q: What about the pest or weed control at 0.5 mg/pot [2] of the same molecule?
A: 95%

Q: For `CCN(CC)C(=O)c1c(Cl)cccc1[Si](C)(C)C` [Example 39, 2-Chloro-N,N-diethyl-6-(trimethylsilyl)benzamide], which inhibition at 0.1 ppm [1] is on record?
A: 49%

Q: What about the inhibition at 1 ppm [1] of the same molecule?
A: 82%

Q: And the inhibition at 10 ppm [1]?
A: 92%

Q: What about the pest or weed control at 0.5 mg/pot [2] of the same molecule?
A: 99%

Q: Which inhibition at 0.1 ppm [1] does the source give for `CCNC(=O)c1c(Cl)cccc1[Si](C)(C)C` [Example 45, 2-Chloro-N-ethyl-6-(trimethylsilyl)benzamide] here?
A: 100%

Q: And the inhibition at 1 ppm [1]?
A: 100%

Q: And the inhibition at 10 ppm [1]?
A: 100%

Q: And the pest or weed control at 0.5 mg/pot [2]?
A: 97%

Q: Which inhibition at 0.1 ppm [1] does the source give for `CCNC(=O)c1c(C)cccc1[Si](C)(C)C` [Example 48, N-Ethyl-2-methyl-6-(trimethylsilyl)benzamide] here?
A: 74%

Q: And the inhibition at 1 ppm [1]?
A: 100%

Q: What about the inhibition at 10 ppm [1] of the same molecule?
A: 100%

Q: And the pest or weed control at 0.5 mg/pot [2]?
A: 97%

Q: How did the inhibition at 0.1 ppm [1] turn out when `CCNC(=O)c1ccccc1[Si](C)(C)C` [Example 49, N-Ethyl-2-(trimethylsilyl)benzamide] was run?
A: 100%

Q: And the inhibition at 1 ppm [1]?
A: 100%

Q: What about the inhibition at 10 ppm [1] of the same molecule?
A: 100%

Q: What about the pest or weed control at 0.5 mg/pot [2] of the same molecule?
A: 97%

Q: For `CCN(CC)C(=S)c1c(C)cccc1[Si](C)(C)C` [Example 51, N,N-Diethyl-2-methyl-6-(trimethylsilyl)thiobenzamide], which inhibition at 0.1 ppm [1] is on record?
A: < 0%

Q: What about the inhibition at 1 ppm [1] of the same molecule?
A: 19%

Q: And the inhibition at 10 ppm [1]?
A: 100%

Q: And the pest or weed control at 0.5 mg/pot [2]?
A: 77%
